Holding throughout (details): for inhibition at 1000 µM: 10^–3 M; for inhibition at 100 µM: 10^–4 M
In one experiment the target is BChE (Homo sapiens, UniProt P06276). In words: biochemical. As for the experimental part: (§1) According to the modified Ellman approach outlined in our team’s earlier work, the AChE and BChE inhibitory activities of the obtained compounds were evaluated.[18]−[21]
Another experiment has as its target AChE (Homo sapiens, UniProt P22303). The experiment in a line: biochemical. As for the experimental part:
as §1

The target in a further experiment is T1, MAO-B (Homo sapiens, UniProt P27338).
T1 sequence (P27338 1-520): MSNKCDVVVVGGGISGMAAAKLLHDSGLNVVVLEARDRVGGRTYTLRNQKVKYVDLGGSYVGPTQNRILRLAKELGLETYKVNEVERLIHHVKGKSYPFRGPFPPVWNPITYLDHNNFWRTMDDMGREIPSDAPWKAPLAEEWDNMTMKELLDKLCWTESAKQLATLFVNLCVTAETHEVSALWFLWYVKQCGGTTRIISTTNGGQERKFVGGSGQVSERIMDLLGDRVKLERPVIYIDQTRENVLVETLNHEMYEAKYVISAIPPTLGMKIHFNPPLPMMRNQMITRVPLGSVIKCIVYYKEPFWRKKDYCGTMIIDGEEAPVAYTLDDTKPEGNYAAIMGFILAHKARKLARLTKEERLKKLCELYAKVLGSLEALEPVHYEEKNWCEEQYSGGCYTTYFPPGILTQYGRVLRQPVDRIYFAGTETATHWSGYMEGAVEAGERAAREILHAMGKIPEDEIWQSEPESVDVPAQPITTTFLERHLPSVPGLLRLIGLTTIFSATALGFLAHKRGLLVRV
The experiment in a line: In vitro MAO-B inhibition assay (fluorometric). In kind it is biochemical.

The target of a further experiment is T2, MAO-A (Homo sapiens, UniProt P21397).
T2 sequence (P21397 1-527): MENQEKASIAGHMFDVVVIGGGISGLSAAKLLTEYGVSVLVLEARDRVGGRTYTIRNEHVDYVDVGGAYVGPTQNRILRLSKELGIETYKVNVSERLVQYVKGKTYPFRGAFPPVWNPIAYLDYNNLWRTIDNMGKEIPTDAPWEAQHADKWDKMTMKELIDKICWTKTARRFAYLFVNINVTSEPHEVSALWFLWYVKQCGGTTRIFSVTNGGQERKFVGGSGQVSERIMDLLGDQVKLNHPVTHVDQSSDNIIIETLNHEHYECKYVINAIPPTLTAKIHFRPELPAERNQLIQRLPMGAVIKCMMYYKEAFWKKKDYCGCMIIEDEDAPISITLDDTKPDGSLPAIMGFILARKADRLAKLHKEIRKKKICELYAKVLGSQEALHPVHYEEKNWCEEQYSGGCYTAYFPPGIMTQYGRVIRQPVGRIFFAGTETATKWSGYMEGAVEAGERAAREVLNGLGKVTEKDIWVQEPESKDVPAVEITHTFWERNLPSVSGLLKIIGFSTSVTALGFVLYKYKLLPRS
In words: In vitro MAO-A inhibition assay (fluorometric). In kind it is biochemical.

Each structure is given as a SMILES string.

From publication PMC9774391 (ACS Omega, 2022) come the findings set out here.

Broadly, the inhibition is the drop in the measured response relative to a control, in per cent.

BChE, sequence (P06276 29-602): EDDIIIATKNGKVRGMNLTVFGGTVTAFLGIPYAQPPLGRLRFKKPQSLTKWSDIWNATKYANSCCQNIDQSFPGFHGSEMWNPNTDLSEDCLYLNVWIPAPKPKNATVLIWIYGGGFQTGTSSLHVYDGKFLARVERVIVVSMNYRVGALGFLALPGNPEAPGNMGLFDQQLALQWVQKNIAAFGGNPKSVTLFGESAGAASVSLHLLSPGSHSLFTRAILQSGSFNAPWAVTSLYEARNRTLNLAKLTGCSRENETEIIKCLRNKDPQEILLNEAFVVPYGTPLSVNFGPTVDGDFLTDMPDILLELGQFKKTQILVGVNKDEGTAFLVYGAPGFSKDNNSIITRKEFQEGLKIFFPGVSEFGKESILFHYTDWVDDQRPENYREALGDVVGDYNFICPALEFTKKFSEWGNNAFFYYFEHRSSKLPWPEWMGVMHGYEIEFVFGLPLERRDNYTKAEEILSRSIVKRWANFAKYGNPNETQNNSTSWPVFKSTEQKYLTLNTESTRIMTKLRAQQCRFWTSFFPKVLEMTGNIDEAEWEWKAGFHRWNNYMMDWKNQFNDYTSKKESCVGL
AChE, sequence (P22303 32-614): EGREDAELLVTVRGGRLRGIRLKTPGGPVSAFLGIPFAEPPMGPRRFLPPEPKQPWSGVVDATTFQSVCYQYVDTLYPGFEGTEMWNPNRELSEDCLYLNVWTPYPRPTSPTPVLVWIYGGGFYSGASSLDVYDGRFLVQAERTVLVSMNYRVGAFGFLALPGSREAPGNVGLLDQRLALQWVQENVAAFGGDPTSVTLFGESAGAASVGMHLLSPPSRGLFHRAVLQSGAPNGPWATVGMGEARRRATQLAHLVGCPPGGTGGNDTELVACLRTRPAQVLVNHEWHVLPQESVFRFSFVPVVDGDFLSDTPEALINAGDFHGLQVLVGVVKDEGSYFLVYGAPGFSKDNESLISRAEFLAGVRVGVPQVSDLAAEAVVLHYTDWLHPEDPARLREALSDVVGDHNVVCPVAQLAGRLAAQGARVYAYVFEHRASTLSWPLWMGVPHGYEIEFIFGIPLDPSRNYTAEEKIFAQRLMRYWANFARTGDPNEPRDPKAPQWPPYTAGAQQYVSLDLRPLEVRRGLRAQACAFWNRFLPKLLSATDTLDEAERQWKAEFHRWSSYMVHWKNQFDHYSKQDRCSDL

On to `COCCN1CCN(CC(=O)Nc2ccc(/C=C3\Cc4cc(OC)ccc4C3=O)cc2)CC1` [D13], for which the inhibition at 1000 µM is 90.1 ± 1.46% against BChE, 71.2 ± 1.07% against AChE, 84.6 ± 1.11% against MAO-B and 82.7 ± 1.21% against MAO-A. The inhibition at 100 µM turned out to be 23.9 ± 0.934% on BChE, 43 ± 0.998% against AChE, 44.6 ± 0.557% on MAO-B and 35.5 ± 0.623% at MAO-A.
Take `COc1cc2c(cc1OC)C(=O)/C(=C/c1ccc(NC(=O)CN3CCN(CCO)CC3)cc1)C2` [D18]: the inhibition at 1000 µM came out at 99.21 ± 0.887% at BChE, 94.7 ± 1.97% against AChE, 75.6 ± 1.2% at MAO-B and 63.8 ± 0.683% on MAO-A. Besides, the inhibition at 100 µM worked out at 41.8 ± 0.766% against BChE, 45.3 ± 1.01% at AChE, 47.34 ± 0.457% against MAO-B and 28.39 ± 0.097% against MAO-A.
Take `COCCN1CCN(CC(=O)Nc2ccc(/C=C3\Cc4ccc(OC)cc4C3=O)cc2)CC1` [D14]: the inhibition at 1000 µM was 73.7 ± 1.51% against BChE, 44.2 ± 0.999% at AChE, 69 ± 0.847% on MAO-B and 48.5 ± 0.749% at MAO-A. Besides, the inhibition at 100 µM on BChE was found to be 33 ± 0.721%; at AChE, 36.3 ± 0.664%; at MAO-B it was 39.3 ± 0.652%; at MAO-A, 27.95 ± 0.243%.
`COc1ccc2c(c1)C/C(=C\c1ccc(NC(=O)CN3CCN(C)CC3)cc1)C2=O` [D1]: the inhibition at 1000 µM came to 94.6 ± 0.972% against BChE, 83.2 ± 1.09% against AChE, 65.12 ± 0.623% against MAO-B and 59 ± 0.598% against MAO-A. For the same compound, the inhibition at 100 µM worked out at 32.8 ± 0.455% against BChE, 47.3 ± 0.887% at AChE, 38.7 ± 0.512% against MAO-B and 21.4 ± 0.424% at MAO-A.
In the case of `CCN1CCN(CC(=O)Nc2ccc(/C=C3\Cc4cc(OC)ccc4C3=O)cc2)CC1` [D4], the inhibition at 1000 µM was determined as 92.9 ± 2.41% against BChE, 74.5 ± 1.02% against AChE, 77.1 ± 1.06% against MAO-B and 67.6 ± 1.06% against MAO-A. Besides, the inhibition at 100 µM against BChE amounted to 21.21 ± 0.11%; against AChE, 38.2 ± 0.479%; against MAO-B it was 36.3 ± 0.496%; on MAO-A, 20.9 ± 0.455%.
On to `COc1ccc2c(c1)C/C(=C\c1ccc(NC(=O)CN3CCN(CCO)CC3)cc1)C2=O` [D16], for which the inhibition at 1000 µM on BChE worked out at 87.63 ± 0.618%; at AChE it was 88 ± 1.09%; at MAO-B it was 75.6 ± 1.1%; on MAO-A, 65.8 ± 0.779%. For the same compound, the inhibition at 100 µM on BChE is 23.6 ± 0.448%; against AChE it was 42.6 ± 1.85%; against MAO-B, 42.9 ± 0.629%; against MAO-A, 22 ± 0.233%.
On to `C#CCN1CCN(CC(=O)Nc2ccc(/C=C3\Cc4cc(OC)c(OC)cc4C3=O)cc2)CC1` [D12], for which the inhibition at 1000 µM against BChE was found to be 98.4 ± 1.79%; at AChE, 96.5 ± 2.7%; against MAO-B, 96.2 ± 1.34%; at MAO-A it was 95.76 ± 0.49%. The inhibition at 100 µM is 48.8 ± 0.529% on BChE, 49.7 ± 0.988% against AChE, 49 ± 0.623% against MAO-B and 45.1 ± 0.466% against MAO-A.
Regarding `CCN1CCN(CC(=O)Nc2ccc(/C=C3\Cc4cc(OC)c(OC)cc4C3=O)cc2)CC1` [D6], the inhibition at 1000 µM against BChE is 96.51 ± 0.317%; at AChE, 97.5 ± 2.23%; on MAO-B, 95.5 ± 1.25%; against MAO-A, 93.27 ± 0.309%. The inhibition at 100 µM turned out to be 32.8 ± 0.908% against BChE, 31.3 ± 0.697% against AChE, 48.6 ± 1.13% against MAO-B and 33.9 ± 1.13% on MAO-A.
In the case of `C=CCN1CCN(CC(=O)Nc2ccc(/C=C3\Cc4cc(OC)ccc4C3=O)cc2)CC1` [D7], the inhibition at 1000 µM was found to be 56.8 ± 0.971% at BChE, 61.3 ± 1.01% against AChE, 66.33 ± 0.557% at MAO-B and 61.89 ± 0.618% against MAO-A. The inhibition at 100 µM stood at 21.2 ± 0.378% against BChE, 34.8 ± 0.472% against AChE, 47.9 ± 0.952% against MAO-B and 41.4 ± 0.808% against MAO-A.
As for `CCN(CC)CCN(CC)CC(=O)Nc1ccc(/C=C2\Cc3cc(OC)c(OC)cc3C2=O)cc1` [D42], the inhibition at 1000 µM is 99.4 ± 1.29% against BChE, 99.8 ± 2.01% against AChE, 95.2 ± 1.62% on MAO-B and 97.71 ± 0.411% at MAO-A. In addition, the inhibition at 100 µM on BChE is 45.91 ± 0.206%; on AChE it was 44.2 ± 0.71%; on MAO-B it was 40.2 ± 0.824%; on MAO-A it was 40.2 ± 0.736%.
With `COc1ccc2c(c1)C(=O)/C(=C/c1ccc(NC(=O)CN3CCN(CCO)CC3)cc1)C2` [D17], the inhibition at 1000 µM against BChE was found to be 75.532 ± 0.061%; against AChE, 73.7 ± 1.06%; against MAO-B, 84.6 ± 1.04%; at MAO-A it was 82.45 ± 0.529%. The inhibition at 100 µM stood at 21.1 ± 0.804% against BChE, 48.1 ± 0.669% against AChE, 45.4 ± 0.669% on MAO-B and 34.4 ± 0.508% against MAO-A.
On to `COc1cc2c(cc1OC)C(=O)/C(=C/c1ccc(NC(=O)CN3CCN(C)CC3)cc1)C2` [D3], for which the inhibition at 1000 µM at BChE is 98.1 ± 1.57%; on AChE, 99.3 ± 2.34%; at MAO-B, 67.2 ± 0.751%; on MAO-A it was 57.5 ± 0.875%. Besides, the inhibition at 100 µM stood at 40.4 ± 0.548% at BChE, 44.1 ± 0.906% on AChE, 36.2 ± 0.452% against MAO-B and 26.5 ± 0.365% at MAO-A.
Turning to `COc1ccc2c(c1)C(=O)/C(=C/c1ccc(NC(=O)CN3CCN(C)CC3)cc1)C2` [D2], the inhibition at 1000 µM worked out at 61.3 ± 0.18% against BChE, 50.3 ± 0.731% against AChE, 75.3 ± 0.987% on MAO-B and 46.6 ± 0.853% against MAO-A. Besides, the inhibition at 100 µM at BChE was determined as 23.6 ± 0.226%; at AChE, 42.9 ± 0.601%; against MAO-B it was 45.3 ± 0.859%; against MAO-A, 27.7 ± 0.909%.
Take `C#CCN1CCN(CC(=O)Nc2ccc(/C=C3\Cc4ccc(OC)cc4C3=O)cc2)CC1` [D11]: the inhibition at 1000 µM at BChE turned out to be 91.7 ± 1.21%; on AChE, 66.6 ± 0.985%; against MAO-B it was 79.6 ± 1.13%; against MAO-A, 77 ± 1.59%. The inhibition at 100 µM came out at 33.9 ± 0.569% against BChE, 49.9 ± 0.809% against AChE, 35.6 ± 0.488% against MAO-B and 25.5 ± 0.52% at MAO-A.
With `COCCN1CCN(CC(=O)Nc2ccc(/C=C3\Cc4cc(OC)c(OC)cc4C3=O)cc2)CC1` [D15], the inhibition at 1000 µM at BChE stood at 94.6 ± 1.6%; against AChE, 91.6 ± 2.56%; on MAO-B, 80.2 ± 1.46%; on MAO-A it was 70.52 ± 0.536%. Further, the inhibition at 100 µM against BChE turned out to be 43.5 ± 0.966%; at AChE it was 43.4 ± 0.877%; on MAO-B, 40.1 ± 0.508%; against MAO-A, 20.3 ± 0.412%.
`C=CCN1CCN(CC(=O)Nc2ccc(/C=C3\Cc4cc(OC)c(OC)cc4C3=O)cc2)CC1` [D9]: the inhibition at 1000 µM was determined as 82.8 ± 1.03% against BChE, 81.3 ± 1.13% at AChE, 58.63 ± 0.523% against MAO-B and 32.6 ± 0.389% at MAO-A. Besides, the inhibition at 100 µM stood at 28.2 ± 0.679% at BChE, 45.2 ± 0.996% against AChE, 34.8 ± 0.384% against MAO-B and 24.5 ± 0.459% against MAO-A.
With `C=CCN1CCN(CC(=O)Nc2ccc(/C=C3\Cc4ccc(OC)cc4C3=O)cc2)CC1` [D8], the inhibition at 1000 µM at BChE was found to be 51 ± 0.667%; against AChE, 51 ± 0.995%; at MAO-B, 78.6 ± 1.15%; at MAO-A, 57.2 ± 1.34%. The inhibition at 100 µM against BChE amounted to 28.4 ± 0.409%; at AChE, 42 ± 0.661%; against MAO-B, 46.2 ± 0.547%; against MAO-A, 26.6 ± 0.455%.
With `CCN1CCN(CC(=O)Nc2ccc(/C=C3\Cc4ccc(OC)cc4C3=O)cc2)CC1` [D5], the inhibition at 1000 µM at BChE was determined as 55.6 ± 549%; against AChE, 38.6 ± 0.518%; against MAO-B it was 75.6 ± 1.08%; on MAO-A, 66.6 ± 1.49%. The inhibition at 100 µM against BChE worked out at 26.3 ± 0.211%; against AChE it was 31.7 ± 0.499%; against MAO-B it was 44.4 ± 0.627%; against MAO-A it was 24.7 ± 0.514%.
